{"source": "patent US20240261417A1", "about": "“SOS1 DEGRADING AGENT AND PREPARATION METHOD THEREFOR AND APPLICATION THEREOF” (SHANGHAI LEADINGTAC PHARMACEUTICAL CO. LTD., priority 2021, published 2024)"}
{"test_system": "KRAS G12C mutant human non-small cell lung cancer cells NCI-H358", "experiment": "3D cell proliferation inhibition assay, NCI-H358", "type": "cell-based", "conditions": "Homo sapiens, NCI-H358, 168 h, 7 days, CTG", "description": "Inhibition of 3D cell proliferation by the compounds was investigated on KRAS G12C mutant human non-small cell lung cancer cells NCI-H358 (ATCC or Stem Cell Bank, Chinese Academy of Sciences), KRAS G12D mutant human metastatic pancreatic adenocarcinoma cells AsPC-1 (ATCC), KRAS G12V mutant human lung adenocarcinoma cells NCI-H441 (ATCC), and KRAS G13D mutant human colorectal adenocarcinoma epithelial cells DLD-1 (ATCC). The specific procedures were as follows:\n200 nL of compound solution diluted in a gradient was added to corresponding microwells of a 384-well low-adsorption microwell plate (Corning, 3657) using an Echo sonic pipetting system (Labcyte, Echo 550), so that the final concentration of the test compound in the reaction system was in a range of 20000 nM-0.008 nM. Then 40 μL of cells at a certain density were added to the corresponding microplate. In addition to test wells for the test compounds, both a DMSO control well and a medium control well were set, with the DMSO control well containing DMSO and cells and the medium well containing only medium. After sample loading, the plate cover was applied, and the 384-well low-adsorption microplate was incubated in an incubator at 37° C. with 5% carbon dioxide for 7 days. After 7 days, the microplate was taken out, and 40 μL of CTG reagent (Promega, G9683) was added to each well. The plate was incubated at room temperature for 30 min and read on a microplate reader EnVision using the chemiluminescence program. The inhibition rates of the compounds at each concentration were calculated by the formula for the percentage inhibition of cell proliferation: inhibition rate %=(mean value of DMSO control group−single concentration reading value of compound)/(mean value of DMSO control group−mean value of medium control group)×100, and then nonlinear curve fitting was performed by GraphPad Prism 8 in the logarithmic concentration-inhibition rate to obtain the IC50 values of the compounds.", "units": {"IC50": "nM"}}
{"molecule": "COc1cc2nc(C)nc(N[C@H](C)c3cc(N)cc(C(F)(F)F)c3)c2cc1[C@H]1CC[C@H](C(=O)N2CCC(CCOCC3CCN(C(=O)c4ccc(Cl)c(N5CCC(=O)NC5=O)c4)CC3)CC2)CC1", "note": "[Example 19, 1-(5-(4-((2-(1-((1R,4R)-4-(4-(((R)-1-(3-amino-5-(trifluoromethyl)phenyl)ethyl)amino)-7-methoxy-2-methylquinazolin-6-yl)cyclohexane-1-carbonyl)piperidin-4-yl)ethoxy)methyl)piperidine-1-carbonyl)-2-chlorophenyl)dihydropyrimidine-2,4(1H,3H)-dione]", "IC50": "≤ 15"}
{"molecule": "COc1cc2nc(C)nc(N[C@H](C)c3cc(N)cc(C(F)(F)F)c3)c2cc1[C@H]1CC[C@H](C(=O)N2CCN(CC3CCC4(CC3)CCN(C(=O)c3ccc(Cl)c(N5CCC(=O)NC5=O)c3)CC4)CC2)CC1", "note": "[Example 2, 1-(5-(9-((4-((1R,4R)-4-(4-(((R)-1-(3-amino-5-(trifluoromethyl)phenyl)ethyl)amino)-7-methoxy-2-methylquinazolin-6-yl)cyclohexane-1-carbonyl)piperazin-1-yl)methyl)-3-azaspiro[5.5]undecane-3-carbonyl)-2-chlorophenyl)dihydropyrimidine-2,4(1H,3H)-dione]", "IC50": "≤ 15"}
{"molecule": "CNCc1ccccc1-c1csc([C@@H](C)Nc2nc(C)nc3cc(OC)c([C@H]4CC[C@H](C(=O)N5CCN(CC6CCC7(CC6)CCN(C(=O)c6ccc(OC)c(N8CCC(=O)NC8=O)c6)CC7)CC5)CC4)cc23)c1", "note": "[Example 73, 1-(2-methoxy-5-(9-((4-((1R,4R)-4-(7-methoxy-2-methyl-4-(((R)-1-(4-(2-((methylamino)methyl)phenyl)thien-2-yl)ethyl)amino)quinazolin-6-yl)cyclohexane-1-carbonyl)piperazin-1-yl)methyl)-3-azaspiro[5.5]undecane-3-carbonyl)phenyl)dihydropyrimidine-2,4(1H,3H)-dione]", "IC50": "≤ 15"}
{"molecule": "COc1cc2nc(C)nc(N[C@H](C)c3cccc4c3CCS4(=O)=O)c2cc1[C@H]1CC[C@H](C(=O)N2CCN(CC3CCC4(CC3)CCN(C(=O)c3ccc(Cl)c(N5CCC(=O)NC5=O)c3)CC4)CC2)CC1", "note": "[Example 10, 1-(2-chloro-5-(9-((4-((1R,4R)-4-(4-(((R)-1-(1,1-dioxo-2,3-dihydrobenzo[b]thiophen-4-yl)ethyl)amino)-7-methoxy-2-methylquinazolin-6-yl)cyclohexane-1-carbonyl)piperazin-1-yl)methyl)-3-azaspiro[5.5]undecane-3-carbonyl)phenyl)dihydropyrimidine-2,4(1H,3H)-dione]", "IC50": "≤ 15"}
{"molecule": "COc1cc2nc(C)nc(N[C@H](C)c3cc(N)cc(C(F)(F)F)c3)c2cc1[C@H]1CC[C@H](C(=O)N2CCN(CCOCC3CCN(C(=O)c4ccc(Cl)c(N5CCC(=O)NC5=O)c4)CC3)CC2)CC1", "note": "[Example 33, 1-(5-(4-((2-(4-((1R,4R)-4-(4-(((R)-1-(3-amino-5-(trifluoromethyl)phenyl)ethyl)amino)-7-methoxy-2-methylquinazolin-6-yl)cyclohexane-1-carbonyl)piperazin-1-yl)ethoxy)methyl)piperidine-1-carbonyl)-2-chlorophenyl)dihydropyrimidine-2,4(1H,3H)-dione]", "IC50": "≤ 15"}
{"molecule": "COc1cc2nc(C)nc(N[C@H](C)c3cc(N)cc(C(F)(F)F)c3)c2cc1[C@H]1CC[C@H](C(=O)N2CCN(CCC3CCC4(CC3)CCN(C(=O)c3ccc(Cl)c(N5CCC(=O)NC5=O)c3)CC4)CC2)CC1", "note": "[Example 1, 1-(5-(9-(2-(4-((1R,4R)-4-(4-(((R)-1-(3-amino-5-(trifluoromethyl)phenyl)ethyl)amino)-7-methoxy-2-methylquinazolin-6-yl)cyclohexane-1-carbonyl)piperazin-1-yl)ethyl)-3-azaspiro[5.5]undecane-3-carbonyl)-2-chlorophenyl)dihydropyrimidine-2,4(1H,3H)-dione]", "IC50": "≤ 15"}
